From ChEMBL document CHEMBL5321224, “Antimicrobial peptides: Structure, mechanism, and modification” (2023) come the findings set out here.

What all share (format): functional
The test system of experiment [1] is Staphylococcus aureus. Briefly: Antimicrobial activity against Staphylococcus aureus assessed as reduction of microbial growth incubated for 24 hrs.
The test system of experiment [2] is Escherichia coli. Briefly: Antimicrobial activity against Escherichia coli assessed as reduction of microbial growth incubated for 24 hrs.
In experiment [3] the test system is Pseudomonas aeruginosa. Briefly: Antimicrobial activity against Pseudomonas aeruginosa assessed as reduction of microbial growth incubated for 24 hrs.
In experiment [4] the test system is Escherichia coli. Briefly: Antimicrobial activity against Escherichia coli D21 assessed as reduction of microbial growth. Conditions: time 24 hrs.
In experiment [5] the test system is Pseudomonas aeruginosa. Briefly: Antimicrobial activity against Pseudomonas aeruginosa OT97 assessed as reduction of microbial.
For experiment [6], the system named is Staphylococcus aureus. Briefly: Antimicrobial activity against Staphylococcus aureus Cowan 1 assessed as reduction of microbial.
Experiment [7] has as its system Pseudomonas aeruginosa. Briefly: Antimicrobial activity against Pseudomonas aeruginosa KCTC 1637 measured after 18 hrs.
In experiment [8] the test system is Escherichia coli. Briefly: Antimicrobial activity against Escherichia coli ATCC 33694 measured after 18 hrs.
The subject of experiment [9] is Pseudomonas aeruginosa. Briefly: Antimicrobial activity against Pseudomonas aeruginosa measured after 18 hrs.

In the case of `CC[C@H](C)[C@H](NC(=O)CN)C(=O)NCC(=O)N[C@@H](C)C(=O)N[C@H](C(=O)N[C@@H](CC(C)C)C(=O)N[C@@H](CCCCN)C(=O)N[C@H](C(=O)N[C@@H](CC(C)C)C(=O)N[C@H](C(=O)N[C@H](C(=O)NCC(=O)N[C@@H](CC(C)C)C(=O)N[C@@H](CCCCN)C(=O)N[C@@H](Cc1c[nH]c2ccccc12)C(=O)N[C@@H](CCCCN)C(=O)N[C@@H](CC(C)C)C(=O)N[C@@H](Cc1ccccc1)C(=O)N[C@@H](CCCCN)C(=O)N[C@@H](CCCCN)C(=O)N[C@H](C(=O)N[C@@H](CCC(=O)O)C(=O)N[C@@H](CCCCN)C(=O)N[C@H](C(=O)NCC(=O)N[C@@H](CCC(N)=O)C(=O)N[C@@H](CC(N)=O)C(=O)N[C@H](C(=O)N[C@@H](CCCNC(=N)N)C(=O)N[C@@H](CC(=O)O)C(=O)NCC(=O)N[C@H](C(=O)N[C@H](C(=O)N[C@@H](CCCCN)C(=O)N[C@@H](C)C(=O)O)[C@@H](C)CC)[C@@H](C)CC)[C@@H](C)CC)C(C)C)[C@@H](C)CC)[C@@H](C)O)[C@@H](C)O)C(C)C)C(C)C`, the values for the LD in the experiment on Staphylococcus aureus [1], with Escherichia coli [2] and with Pseudomonas aeruginosa [3] were 5 µM, 0.7 µM and 8 µM, respectively.
Consider H-KWKLFKKIGIGAVLKVLKTTGLPALI-OH, for which the LD worked out at 0.3 µM in the experiment on Escherichia coli [4], 0.7 µM with Pseudomonas aeruginosa [5] and 1 µM with Staphylococcus aureus [6].
Consider H-KWKKLLKKPLLKKLLKKL-NH2, for which the LD in the experiment on Pseudomonas aeruginosa [7] stood at 0.78 µM.
In the case of H-KWKLFKKIGIGKFLHSAKKF-NH2, the LD in the experiment with Escherichia coli [8] was found to be 6.25 µM; in the experiment on Pseudomonas aeruginosa [9], 1.56 µM.
Turning to H-KWKLFKKIEKVGQNIRDGGIGAVLKV-OH, the LD in the experiment on Staphylococcus aureus [1] came out at 600 µM; in the experiment on Escherichia coli [2], 1 µM; in the experiment on Pseudomonas aeruginosa [3], 15 µM.
